Experimental data taken from ChEMBL document CHEMBL5696441 (Nat Chem Biol, 2011).
pIC50: −log10 of the molar value.

Legend:
[1] = biological target: Proto-oncogene tyrosine-protein kinase ROS (Homo sapiens) (UniProt P08922); test: Inhibition of ROS1 (unknown origin) assessed as remaining activity at 1 uM by Kinome scan method relative to control
[2] = biological target: RAC-beta serine/threonine-protein kinase (Homo sapiens) (UniProt P31751); test: Inhibition of AKT2 (unknown origin) assessed as remaining activity at 1 uM by Kinome scan method relative to control
Chain of RAC-beta serine/threonine-protein kinase (Homo sapiens) (P31751 whole entry): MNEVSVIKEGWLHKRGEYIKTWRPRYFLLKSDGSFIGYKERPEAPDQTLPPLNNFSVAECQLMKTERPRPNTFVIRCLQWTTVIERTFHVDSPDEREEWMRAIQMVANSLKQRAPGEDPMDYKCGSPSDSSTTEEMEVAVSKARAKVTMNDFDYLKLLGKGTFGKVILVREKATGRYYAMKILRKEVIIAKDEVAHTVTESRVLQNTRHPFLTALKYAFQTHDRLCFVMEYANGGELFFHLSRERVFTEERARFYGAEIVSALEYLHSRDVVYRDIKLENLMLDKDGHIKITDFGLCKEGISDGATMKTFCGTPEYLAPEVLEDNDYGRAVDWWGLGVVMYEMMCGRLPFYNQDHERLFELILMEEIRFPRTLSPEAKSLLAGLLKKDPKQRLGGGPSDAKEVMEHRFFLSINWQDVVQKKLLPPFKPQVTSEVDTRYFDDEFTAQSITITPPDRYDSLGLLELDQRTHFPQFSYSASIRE

[3] = biological target: Myosin-IIIa (Homo sapiens) (UniProt Q8NEV4); test: Inhibition of MYO3A (unknown origin) assessed as remaining activity at 1 uM by Kinome scan method relative to control
[4] = biological target: MAP kinase-interacting serine/threonine-protein kinase 2 (Homo sapiens) (UniProt Q9HBH9); test: Inhibition of human MKNK2 assessed as residual activity at 1 uM using RB-S6P as substrate in presence of 33P-ATP by ProQinase assay relative to control
[5] = biological target: Mast/stem cell growth factor receptor Kit (Homo sapiens) (UniProt P10721); test: Inhibition of human KIT assessed as residual activity at 1 uM using polyEY as substrate in presence of 33P-ATP by ProQinase assay relative to control
[6] = biological target: Cyclin-dependent kinase 1/cyclin B1 (Homo sapiens) (UniProt P06493+P14635); test: Inhibition of human CDK1/CycB1 assessed as residual activity at 1 uM using RBER-CHKtide as substrate in presence of 33P-ATP by ProQinase assay relative to control; format: protein-complex assay
Chain of Cyclin-dependent kinase 1/cyclin B1 (Homo sapiens) (P06493 whole entry, looked up): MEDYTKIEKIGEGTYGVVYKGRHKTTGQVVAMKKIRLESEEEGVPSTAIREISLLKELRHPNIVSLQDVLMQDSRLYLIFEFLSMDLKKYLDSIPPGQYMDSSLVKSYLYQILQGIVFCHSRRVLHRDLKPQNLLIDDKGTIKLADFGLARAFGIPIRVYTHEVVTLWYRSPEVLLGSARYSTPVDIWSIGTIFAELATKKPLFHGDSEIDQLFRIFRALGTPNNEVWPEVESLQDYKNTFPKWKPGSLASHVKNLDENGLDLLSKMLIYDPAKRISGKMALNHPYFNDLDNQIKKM
Chain of Cyclin-dependent kinase 1/cyclin B1 (Homo sapiens) (P14635 whole entry, looked up): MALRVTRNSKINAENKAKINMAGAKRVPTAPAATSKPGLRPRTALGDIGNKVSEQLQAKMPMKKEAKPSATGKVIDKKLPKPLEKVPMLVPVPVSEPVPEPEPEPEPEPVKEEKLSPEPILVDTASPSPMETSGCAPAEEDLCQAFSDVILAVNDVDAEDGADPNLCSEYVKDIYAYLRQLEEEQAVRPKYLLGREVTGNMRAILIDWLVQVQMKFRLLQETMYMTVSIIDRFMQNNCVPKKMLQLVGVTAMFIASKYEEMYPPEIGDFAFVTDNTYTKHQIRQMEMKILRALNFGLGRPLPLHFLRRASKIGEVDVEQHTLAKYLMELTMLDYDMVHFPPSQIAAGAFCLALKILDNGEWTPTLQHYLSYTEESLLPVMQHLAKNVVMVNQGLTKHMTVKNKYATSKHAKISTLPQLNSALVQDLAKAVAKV

[7] = biological target: Activin receptor type-1 (Homo sapiens) (UniProt Q04771); test: Inhibition of human ACVR1 assessed as residual activity at 1 uM using RBER-GSK3(14-27) as substrate in presence of 33P-ATP by ProQinase assay relative to control
[8] = test system: Mast/stem cell growth factor receptor Kit (Homo sapiens), P10721 [L576P]; test: Inhibition of KIT L576P mutant (unknown origin) assessed as remaining activity at 1 uM by Kinome scan method relative to control
Chain of Mast/stem cell growth factor receptor Kit (Homo sapiens), P10721 [L576P] (P10721 whole entry L576P): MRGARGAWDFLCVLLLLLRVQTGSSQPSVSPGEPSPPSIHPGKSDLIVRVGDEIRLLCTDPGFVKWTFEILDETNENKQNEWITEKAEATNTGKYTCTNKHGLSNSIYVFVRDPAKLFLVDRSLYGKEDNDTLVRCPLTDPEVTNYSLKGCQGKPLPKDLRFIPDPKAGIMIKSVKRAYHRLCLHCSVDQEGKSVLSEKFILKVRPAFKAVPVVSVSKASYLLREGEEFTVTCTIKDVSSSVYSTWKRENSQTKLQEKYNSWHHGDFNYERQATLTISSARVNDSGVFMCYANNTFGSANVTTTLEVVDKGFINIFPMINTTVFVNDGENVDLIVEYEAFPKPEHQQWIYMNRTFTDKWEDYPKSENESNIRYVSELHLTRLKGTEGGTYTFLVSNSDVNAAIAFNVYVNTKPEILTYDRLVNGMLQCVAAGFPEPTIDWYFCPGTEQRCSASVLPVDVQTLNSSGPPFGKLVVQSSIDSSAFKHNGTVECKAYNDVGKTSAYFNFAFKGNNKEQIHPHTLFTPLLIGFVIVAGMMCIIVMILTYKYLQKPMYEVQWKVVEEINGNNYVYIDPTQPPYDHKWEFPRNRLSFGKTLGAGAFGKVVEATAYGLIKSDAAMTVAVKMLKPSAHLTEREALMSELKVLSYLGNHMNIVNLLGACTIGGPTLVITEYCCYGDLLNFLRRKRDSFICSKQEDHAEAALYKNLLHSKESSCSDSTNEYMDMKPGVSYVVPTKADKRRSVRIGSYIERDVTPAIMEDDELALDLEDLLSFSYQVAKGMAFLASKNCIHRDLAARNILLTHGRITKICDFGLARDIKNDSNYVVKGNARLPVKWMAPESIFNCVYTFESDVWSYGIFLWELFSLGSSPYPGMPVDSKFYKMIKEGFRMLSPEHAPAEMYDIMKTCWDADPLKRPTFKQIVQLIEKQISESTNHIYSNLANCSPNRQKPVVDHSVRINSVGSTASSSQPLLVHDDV

[9] = biological target: Rho-associated protein kinase 2 (Homo sapiens) (UniProt O75116); test: Inhibition of human ROCK2 assessed as residual activity at 1 uM using RB-S6P as substrate in presence of 33P-ATP by ProQinase assay relative to control
[10] = biological target: Mitogen-activated protein kinase 3 (Homo sapiens) (UniProt P27361); test: Inhibition of human ERK1 assessed as residual activity at 1 uM using RBER-CHKtide as substrate in presence of 33P-ATP by ProQinase assay relative to control
[11] = biological target: CDK6/cyclin D1 (Homo sapiens) (UniProt P24385+Q00534); test: Inhibition of human CDK6/CycD1 assessed as residual activity at 1 uM using RBER-CHKtide as substrate in presence of 33P-ATP by ProQinase assay relative to control; format: protein-complex assay
[12] = biological target: Dual specificity protein kinase CLK3 (Homo sapiens) (UniProt P49761); test: Inhibition of CLK3 (unknown origin) assessed as remaining activity at 1 uM by Kinome scan method relative to control
Chain of Dual specificity protein kinase CLK3 (Homo sapiens) (P49761 whole entry, looked up): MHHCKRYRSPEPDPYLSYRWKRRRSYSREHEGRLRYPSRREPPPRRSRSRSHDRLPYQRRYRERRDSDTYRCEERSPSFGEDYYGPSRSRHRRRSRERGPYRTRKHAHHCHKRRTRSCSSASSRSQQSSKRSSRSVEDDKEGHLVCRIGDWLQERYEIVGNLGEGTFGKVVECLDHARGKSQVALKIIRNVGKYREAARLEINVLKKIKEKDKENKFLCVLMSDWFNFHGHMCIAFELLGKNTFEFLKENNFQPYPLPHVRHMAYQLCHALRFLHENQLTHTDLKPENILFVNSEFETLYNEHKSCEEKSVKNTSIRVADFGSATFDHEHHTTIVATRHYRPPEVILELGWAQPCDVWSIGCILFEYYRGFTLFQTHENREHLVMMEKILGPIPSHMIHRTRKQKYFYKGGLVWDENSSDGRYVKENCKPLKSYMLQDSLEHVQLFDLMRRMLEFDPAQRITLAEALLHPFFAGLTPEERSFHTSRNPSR

[13] = test system: Dual specificity mitogen-activated protein kinase kinase 6 (Homo sapiens), P52564 [S207D,T211D]; test: Inhibition of human MKK6 S207D/T211D double mutant assessed as residual activity at 1 uM using p38-alpha KA as substrate in presence of 33P-ATP by ProQinase assay relative to control
Chain of Dual specificity mitogen-activated protein kinase kinase 6 (Homo sapiens), P52564 [S207D,T211D] (P52564 whole entry S207D/T211D, canonical isoform): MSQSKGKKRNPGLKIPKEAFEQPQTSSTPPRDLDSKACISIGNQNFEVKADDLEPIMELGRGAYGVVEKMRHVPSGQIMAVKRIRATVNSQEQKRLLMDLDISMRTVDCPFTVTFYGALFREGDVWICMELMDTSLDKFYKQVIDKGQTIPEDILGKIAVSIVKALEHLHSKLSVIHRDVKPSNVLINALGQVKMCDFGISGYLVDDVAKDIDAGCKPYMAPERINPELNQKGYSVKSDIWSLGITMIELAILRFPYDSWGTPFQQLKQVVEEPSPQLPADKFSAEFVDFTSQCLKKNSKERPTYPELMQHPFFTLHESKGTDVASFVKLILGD

[14] = biological target: Casein kinase I isoform delta (Homo sapiens) (UniProt P48730); test: Inhibition of human CK1delta assessed as residual activity at 1 uM using casein as substrate in presence of 33P-ATP by ProQinase assay relative to control
[15] = biological target: Cyclin-dependent kinase 5 (Homo sapiens) (UniProt Q00535); test: Inhibition of CDK5 (unknown origin) assessed as remaining activity at 1 uM by Kinome scan method relative to control
Chain of Cyclin-dependent kinase 5 (Homo sapiens) (Q00535 whole entry, looked up): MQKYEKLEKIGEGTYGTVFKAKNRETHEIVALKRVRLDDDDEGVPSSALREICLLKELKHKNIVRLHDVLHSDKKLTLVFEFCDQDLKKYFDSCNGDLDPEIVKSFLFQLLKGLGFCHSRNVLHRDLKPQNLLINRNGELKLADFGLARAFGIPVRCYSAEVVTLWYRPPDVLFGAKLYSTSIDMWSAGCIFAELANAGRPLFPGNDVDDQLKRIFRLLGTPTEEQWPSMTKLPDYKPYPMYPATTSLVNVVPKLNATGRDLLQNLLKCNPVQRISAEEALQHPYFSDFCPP

[16] = Anti-inflammatory activity against human derived high respond PBMC cells assessed as inhibition in stimulated IL-1alpha cytokine release incubated for 2 hrs in the presence of LPS/SEB/aCD28 by Luminex based sandwich immunoassay; format: functional, cell-based
[17] = biological target: Tyrosine-protein kinase Fgr (Homo sapiens) (UniProt P09769); test: Inhibition of human FGR assessed as residual activity at 1 uM using polyEY as substrate in presence of 33P-ATP by ProQinase assay relative to control
[18] = Anti-inflammatory activity against human derived medium respond PBMC cells assessed as inhibition in stimulated TNF-alpha cytokine release incubated for 2 hrs in the presence of LPS/SEB/aCD28 by Luminex based sandwich immunoassay; format: functional, cell-based
[19] = biological target: G protein-coupled receptor kinase 5 (Homo sapiens) (UniProt P34947); test: Inhibition of human GRK5 assessed as residual activity at 1 uM using casein as substrate in presence of 33P-ATP by ProQinase assay relative to control
[20] = biological target: Serine/threonine-protein kinase Nek9 (Homo sapiens) (UniProt Q8TD19); test: Inhibition of human NEK9 assessed as residual activity at 1 uM using RBER-GSK3 as substrate in presence of 33P-ATP by ProQinase assay relative to control
Chain of Serine/threonine-protein kinase Nek9 (Homo sapiens) (Q8TD19 whole entry): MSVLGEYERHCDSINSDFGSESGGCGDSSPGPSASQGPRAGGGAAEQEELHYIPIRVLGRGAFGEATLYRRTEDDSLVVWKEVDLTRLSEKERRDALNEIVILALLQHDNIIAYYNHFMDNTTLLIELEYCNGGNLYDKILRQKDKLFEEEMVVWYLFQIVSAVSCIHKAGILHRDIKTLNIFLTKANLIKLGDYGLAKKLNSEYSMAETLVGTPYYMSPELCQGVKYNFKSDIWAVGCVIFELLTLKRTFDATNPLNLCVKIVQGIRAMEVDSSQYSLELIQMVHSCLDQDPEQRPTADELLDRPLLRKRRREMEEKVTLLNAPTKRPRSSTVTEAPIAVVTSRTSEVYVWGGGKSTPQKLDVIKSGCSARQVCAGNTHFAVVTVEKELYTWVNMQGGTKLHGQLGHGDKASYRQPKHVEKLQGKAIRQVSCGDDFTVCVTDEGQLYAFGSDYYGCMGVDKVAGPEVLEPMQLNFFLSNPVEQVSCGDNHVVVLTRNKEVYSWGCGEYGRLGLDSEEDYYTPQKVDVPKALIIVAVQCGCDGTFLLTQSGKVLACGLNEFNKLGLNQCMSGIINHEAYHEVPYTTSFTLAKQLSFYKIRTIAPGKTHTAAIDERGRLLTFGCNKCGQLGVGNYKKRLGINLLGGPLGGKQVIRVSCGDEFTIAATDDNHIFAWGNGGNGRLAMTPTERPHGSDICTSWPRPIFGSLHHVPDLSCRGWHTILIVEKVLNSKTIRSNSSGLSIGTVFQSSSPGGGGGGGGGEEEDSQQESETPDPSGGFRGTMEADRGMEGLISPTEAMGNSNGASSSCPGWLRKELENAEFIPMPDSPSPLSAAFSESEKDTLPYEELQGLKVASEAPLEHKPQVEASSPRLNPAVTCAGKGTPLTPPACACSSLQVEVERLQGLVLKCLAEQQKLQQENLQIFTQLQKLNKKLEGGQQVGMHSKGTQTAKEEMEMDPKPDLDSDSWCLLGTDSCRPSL

[21] = biological target: Serine/threonine-protein kinase MRCK alpha (Homo sapiens) (UniProt Q5VT25); test: Inhibition of MRCKA (unknown origin) assessed as remaining activity at 1 uM by Kinome scan method relative to control
[22] = biological target: cAMP-dependent protein kinase catalytic subunit PRKX (Homo sapiens) (UniProt P51817); test: Inhibition of human PRKX assessed as residual activity at 1 uM using RBER-GSK3(14-27) as substrate in presence of 33P-ATP by ProQinase assay relative to control
[23] = biological target: Serine/threonine-protein kinase OSR1 (Homo sapiens) (UniProt O95747); test: Inhibition of OSR1 (unknown origin) assessed as remaining activity at 1 uM by Kinome scan method relative to control
[24] = test system: Receptor-type tyrosine-protein kinase FLT3 (Homo sapiens), P36888 [D835Y]; test: Inhibition of FLT3 D835Y mutant (unknown origin) assessed as remaining activity at 1 uM by Kinome scan method relative to control
[25] = biological target: G protein-coupled receptor kinase 4 (Homo sapiens) (UniProt P32298); test: Inhibition of GRK4 (unknown origin) assessed as remaining activity at 1 uM by Kinome scan method relative to control
Chain of G protein-coupled receptor kinase 4 (Homo sapiens) (P32298 whole entry, looked up): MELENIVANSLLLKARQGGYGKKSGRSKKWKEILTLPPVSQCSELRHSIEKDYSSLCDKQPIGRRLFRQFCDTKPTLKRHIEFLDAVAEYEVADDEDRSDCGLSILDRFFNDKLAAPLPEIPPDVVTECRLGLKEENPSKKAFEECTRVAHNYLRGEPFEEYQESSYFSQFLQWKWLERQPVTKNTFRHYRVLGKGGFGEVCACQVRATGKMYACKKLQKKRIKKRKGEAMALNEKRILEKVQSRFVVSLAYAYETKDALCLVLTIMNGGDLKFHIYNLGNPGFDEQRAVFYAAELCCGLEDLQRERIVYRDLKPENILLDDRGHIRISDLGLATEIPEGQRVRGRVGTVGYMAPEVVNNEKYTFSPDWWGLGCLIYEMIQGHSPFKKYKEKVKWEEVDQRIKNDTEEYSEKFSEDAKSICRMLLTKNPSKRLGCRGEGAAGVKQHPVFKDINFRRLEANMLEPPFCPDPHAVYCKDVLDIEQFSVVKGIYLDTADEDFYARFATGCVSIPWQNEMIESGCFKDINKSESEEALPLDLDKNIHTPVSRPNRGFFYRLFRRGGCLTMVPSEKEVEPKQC

[26] = biological target: Platelet-derived growth factor receptor beta (Homo sapiens) (UniProt P09619); test: Inhibition of human PDGFRbeta assessed as residual activity at 1 uM using poly(Ala,Glu,Lys,Tyr) as substrate in presence of 33P-ATP by ProQinase assay relative to control

O=C1c2ccc(Nc3ccc(F)cc3F)cc2CCc2ccc(OC[C@H](O)CO)cc21 [Skepinone-L]
Activity [1]: 99%
Activity [2]: 90%
Activity [3]: 89%
Activity [4]: 96%
Activity [5]: 111%
Activity [6]: 83%
Activity [7]: 94%
Activity [8]: 98%
Activity [9]: 90%
Activity [10]: 99%
Activity [11]: 88%
Activity [12]: 96%
Activity [13]: 120%
Activity [14]: 98%
Activity [15]: 100%
pIC50 [16]: 6.92
Activity [17]: 100%
pIC50 [18]: 6.07
Activity [19]: 121%
Activity [20]: 104%
Activity [21]: 100%
Activity [22]: 79%
Activity [23]: 100%
Activity [24]: 98%
Activity [25]: 100%
Activity [26]: 96%
